One series concerns the target hA2A AR (Homo sapiens, UniProt P29274). The series is described as follows: Competition binding of [3H]ZM241385 to hA2A AR in CHO cell membranes.
A further series has as its target T1, hA2B AR (Homo sapiens, UniProt P29275).
T1 construct: expressed in transfected cells; host or cells: CHO cells
T1 sequence (P29275 1-332): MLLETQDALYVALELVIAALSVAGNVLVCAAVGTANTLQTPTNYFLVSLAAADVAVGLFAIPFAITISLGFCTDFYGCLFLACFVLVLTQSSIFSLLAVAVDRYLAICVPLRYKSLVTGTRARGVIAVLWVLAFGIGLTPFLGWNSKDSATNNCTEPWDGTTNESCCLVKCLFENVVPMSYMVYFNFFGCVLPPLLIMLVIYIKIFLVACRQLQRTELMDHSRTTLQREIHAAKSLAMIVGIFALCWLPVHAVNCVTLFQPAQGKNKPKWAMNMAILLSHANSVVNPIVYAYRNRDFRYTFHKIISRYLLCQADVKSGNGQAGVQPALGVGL
The series is described as follows: Inhibition of NECA stimulated adenylyl cyclase activity (cAMP assay) in CHO cells expressing hA2B receptor. It is filed as cell-based. Particulars: for inhibition at 10 µM: CHO, at 10 μM of tested compound, cAMP assay, read-out: hA2BAR percentage of inhibition (I%); for IC50: NECA stimulated cAMP, hA2B CHO cells, read-out: hA2BAR IC50 (potency in cAMP assay). The text has this:
At the end of the experiments, plates were read with the Perkin Elmer EnSight Multimode Plate Reader.

The target of a further series is T2, hA3 AR (Homo sapiens, UniProt P0DMS8).
T2 sequence (P0DMS8 1-318): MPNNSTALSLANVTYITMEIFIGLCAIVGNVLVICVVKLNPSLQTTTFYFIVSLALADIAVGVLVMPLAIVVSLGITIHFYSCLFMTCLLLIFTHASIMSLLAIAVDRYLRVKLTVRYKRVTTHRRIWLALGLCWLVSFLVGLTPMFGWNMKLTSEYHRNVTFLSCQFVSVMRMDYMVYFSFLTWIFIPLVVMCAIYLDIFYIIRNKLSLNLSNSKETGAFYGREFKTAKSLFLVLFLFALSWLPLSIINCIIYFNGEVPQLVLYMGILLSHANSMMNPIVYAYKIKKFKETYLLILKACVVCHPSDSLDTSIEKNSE
Put plainly: Competition binding of [125I]AB-MECA to hA3 AR in CHO cell membranes. Particulars: for inhibition at 10 µM: read-out: hA3AR percentage of inhibition (I%).

The next series addresses T3, hA1 AR (Homo sapiens, UniProt P30542).
T3 sequence (P30542 1-326): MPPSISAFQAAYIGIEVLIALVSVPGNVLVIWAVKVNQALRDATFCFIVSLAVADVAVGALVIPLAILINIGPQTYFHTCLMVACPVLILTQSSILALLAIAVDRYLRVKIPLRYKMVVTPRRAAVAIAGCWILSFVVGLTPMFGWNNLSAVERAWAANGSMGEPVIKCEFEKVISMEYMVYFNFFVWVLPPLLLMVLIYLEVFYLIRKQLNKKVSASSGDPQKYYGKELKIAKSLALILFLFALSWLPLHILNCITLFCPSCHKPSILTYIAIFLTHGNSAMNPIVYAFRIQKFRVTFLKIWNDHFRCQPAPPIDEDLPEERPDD
The series is described as follows: Competition binding of [3H]DPCPX to hA1 AR in CHO cell membranes. Particulars: for hA1AR Ki: displacement of [3H]DPCPX, CHO cells, mean ± SEM, n = 3–6.

The source of these data is paper PMC7465344 (Pharmaceuticals, 2020).

Sequence of hA2A AR (P29274 whole entry): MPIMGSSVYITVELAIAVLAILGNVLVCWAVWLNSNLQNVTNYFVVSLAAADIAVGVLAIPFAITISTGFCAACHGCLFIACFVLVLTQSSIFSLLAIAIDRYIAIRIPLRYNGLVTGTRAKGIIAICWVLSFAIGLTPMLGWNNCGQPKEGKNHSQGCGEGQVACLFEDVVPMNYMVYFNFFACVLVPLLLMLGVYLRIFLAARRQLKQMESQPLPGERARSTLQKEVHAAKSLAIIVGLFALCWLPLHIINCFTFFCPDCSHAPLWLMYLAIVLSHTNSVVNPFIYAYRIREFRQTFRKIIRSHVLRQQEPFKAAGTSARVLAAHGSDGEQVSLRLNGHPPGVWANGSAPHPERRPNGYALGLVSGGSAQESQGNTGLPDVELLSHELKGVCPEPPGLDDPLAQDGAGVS
Description for hA1 AR: (§1) For membrane preparation, the cells were washed with phosphate-buffered saline and scraped off T75 flasks in an ice-cold hypotonic buffer (5 mMTris-HCl, 1 mM EDTA, pH 7.4). The cell suspensions were homogenized with a Polytron, centrifuged for 30 min at 40,000× g at 4 °C and the resulting membrane pellets were used for competition binding experiments [44].
(§2) Non-specific binding was defined as binding in the presence of 1 μM DPCPX and was always <10% of the total binding [44]. […] Non-specific binding was defined as binding in the presence of 1 μM ABMECA and was always < 10% of the total binding [46]. Bound and free radioactivity were separated by filtering the assay mixture through Whatman GF/B glass fiber filters using a Brandel cell harvester (Brandel Instruments, Unterföhring, Germany).
(§3) The protein concentration was determined according to a Bio-Rad method with bovine albumin as a standard reference. […] Ki and IC50 values were calculated by the non-linear regression analysis using the equation for a sigmoid concentration-response curve (Graph-PAD Prism, San Diego, CA, USA).
Description for hA2A AR: as §1, §2, §3
Description for hA3 AR: as §1, §2, §3

Regarding `Nc1nc(N2CCN(Cc3ccccc3)CC2)nc2sc(-c3ccco3)nc12` [compound 3, 5-(4-Benzylpiperazin-1-yl)-2-(furan-2-yl)thiazolo[5,4-d]pyrimidin-7-amine], the melting point lay in the range of 181 to 183 °C. Besides, the affinity on hA2A AR corresponds to a Ki of 58 ± 5 nM. The inhibition at 10 µM on hA2B AR is 26%. For the same compound, at hA3 AR, the Ki amounted to 868 ± 82 nM. On hA1 AR, the affinity corresponds to a Ki of 180 ± 15 nM and the “hA1AR Ki” value is reported as “good affinities”.
In turn, `COc1ccc(CN2CCC(CNc3nc(N)c4nc(-c5ccco5)sc4n3)CC2)cc1` [compound 20, 2-(Furan-2-yl)-N^5-((1-(4-methoxybenzyl)piperidin-4-yl)methyl)thiazolo[5,4-d]pyrimidine-5,7-diamine] registered a melting point of 182 to 183 °C. At hA2A AR, affinity was put at a Ki of 88 ± 9 nM. Further, on hA2B AR, the inhibition at 10 µM was 24% and the IC50 is > 10000 nM. Moreover, at hA3 AR, the Ki is > 10000 nM and the inhibition at 10 µM was 29%. For the same compound, at hA1 AR, the Ki was 152 ± 11 nM and the “hA1AR Ki” value was “good affinities”.
`Nc1nc(NCCN2CCN(Cc3ccccc3)CC2)nc2sc(-c3ccco3)nc12` [compound 12, N^5-(2-(4-Benzylpiperazin-1-yl)ethyl)-2-(furan-2-yl)thiazolo[5,4-d]pyrimidine-5,7-diamine] showed a melting point of 133 to 135 °C. This compound gave a Ki on hA2A AR of 92 ± 8 nM. At hA2B AR, the inhibition at 10 µM amounted to 26% and the IC50 is > 10000 nM. Further, on hA3 AR, the Ki is > 10000 nM and the inhibition at 10 µM worked out at 17%. Moreover, the Ki on hA1 AR came to 798 ± 72 nM.
As to `Nc1nc(N2CCN(CCc3ccccc3)CC2)nc2sc(-c3ccco3)nc12` [compound 4, 2-(Furan-2-yl)-5-(4-phenethylpiperazin-1-yl)thiazolo[5,4-d]pyrimidin-7-amine], the melting point is 203 to 204 °C. Moreover, the Ki on hA2A AR came out at 237 ± 17 nM. Also, at hA2B AR, the inhibition at 10 µM was 11% and the IC50 is > 10000 nM. The Ki at hA3 AR came to 197 ± 16 nM. Besides, on hA1 AR, the Ki is 1210 ± 114 nM.
Compound `Nc1nc(NCCN2CCC(Cc3ccccc3)CC2)nc2sc(-c3ccco3)nc12` [compound 10, N^5-(2-(4-Benzylpiperidin-1-yl)ethyl)-2-(furan-2-yl)thiazolo[5,4-d]pyrimidine-5,7-diamine] gave a melting point of 155 to 157 °C. On hA2A AR, this compound yielded a Ki of 187 ± 16 nM. Moreover, on hA2B AR, the inhibition at 10 µM was found to be 22% and the IC50 is > 10000 nM. Further, on hA3 AR, the Ki was > 10000 nM and the inhibition at 10 µM came out at 22%. This compound also showed a Ki on hA1 AR of 725 ± 67 nM.
`Nc1nc(N2CCC(Cc3ccccc3)CC2)nc2sc(-c3ccco3)nc12` [compound 1, 5-(4-Benzylpiperidin-1-yl)-2-(furan-2yl)thiazolo[5,4-d]pyrimidin-7-amine] gave a melting point of 197 to 199 °C. On hA2A AR, this compound returned a Ki of 594 ± 48 nM. For the same compound, on hA2B AR, the inhibition at 10 µM worked out at 21% and the 50% inhibitory concentration (IC50) was > 10000 nM. Further, at hA3 AR, the Ki was > 10000 nM and the inhibition at 10 µM came out at 8%. At hA1 AR, the affinity corresponds to a Ki of 586 ± 37 nM.
